The text below walks through data of patent US9560876B2, “Acylamino acid compounds and food preparations containing same” (Nestec S.A., priority 2008, dated 2017).

This test concerns the target human TRPA1 (Homo sapiens, UniProt O75762). The test is described as follows: Intracellular calcium [Ca2+]i flux in HEK 293 cells stably expressing TRPA1 (FLEXstation, Fura-2/AM). In kind it is cell-based. The settings on record: saturating concentration. Here is the method:
Cloning and Expression of Human TRPV1 and TRPA1 Receptors in HEK 293 Cells: Cloning and expression of these receptors was performed following previously published protocols. Briefly, cloned human TRPV1 cDNA was obtained from RZPD (Germany) and hTRPA1 cDNA from OriGene (Rockville, Md.). Genes were subcloned into pcDNA5/FRT (Invitrogen, Carlsbad, Calif.) to generate stable cell lines using the Flp-In system (Invitrogen) after sequencing verification.
Measurement of Intracellular Calcium Levels [Ca2+]i and Membrane Potential Variation in HEK 293 Cells Using a Fluorescent Plate Reader: Cell lines stably expressing TRP channels were seeded into 96-well plates previously coated with poly-D-lysine. […] [Ca2+]i fluxes from a homogeneous cell population (approximately 100000 cells) were measured as changes in fluorescence intensity when stimulated with agonists using a FLEXstation (Molecular Devices). […]
Data Analysis: Responses of molecules in HEK 293 cells were expressed as a percentage of maximum responses evoked by 150 μM cinnamaldehyde for TRPA1 and 1 μM capsaicin for TRPV1 (these concentrations were assessed independently to be saturating under these conditions). For all experiments, calcium fluxes were measured as changes in fluorescence intensity, before and after the addition of agonists. […] Data obtained from this study were expressed as mean SEM. […]
(In general: A change in cytosolic calcium serves as a functional read-out for many receptors and channels.)

Sequence of human TRPA1 (O75762 whole entry): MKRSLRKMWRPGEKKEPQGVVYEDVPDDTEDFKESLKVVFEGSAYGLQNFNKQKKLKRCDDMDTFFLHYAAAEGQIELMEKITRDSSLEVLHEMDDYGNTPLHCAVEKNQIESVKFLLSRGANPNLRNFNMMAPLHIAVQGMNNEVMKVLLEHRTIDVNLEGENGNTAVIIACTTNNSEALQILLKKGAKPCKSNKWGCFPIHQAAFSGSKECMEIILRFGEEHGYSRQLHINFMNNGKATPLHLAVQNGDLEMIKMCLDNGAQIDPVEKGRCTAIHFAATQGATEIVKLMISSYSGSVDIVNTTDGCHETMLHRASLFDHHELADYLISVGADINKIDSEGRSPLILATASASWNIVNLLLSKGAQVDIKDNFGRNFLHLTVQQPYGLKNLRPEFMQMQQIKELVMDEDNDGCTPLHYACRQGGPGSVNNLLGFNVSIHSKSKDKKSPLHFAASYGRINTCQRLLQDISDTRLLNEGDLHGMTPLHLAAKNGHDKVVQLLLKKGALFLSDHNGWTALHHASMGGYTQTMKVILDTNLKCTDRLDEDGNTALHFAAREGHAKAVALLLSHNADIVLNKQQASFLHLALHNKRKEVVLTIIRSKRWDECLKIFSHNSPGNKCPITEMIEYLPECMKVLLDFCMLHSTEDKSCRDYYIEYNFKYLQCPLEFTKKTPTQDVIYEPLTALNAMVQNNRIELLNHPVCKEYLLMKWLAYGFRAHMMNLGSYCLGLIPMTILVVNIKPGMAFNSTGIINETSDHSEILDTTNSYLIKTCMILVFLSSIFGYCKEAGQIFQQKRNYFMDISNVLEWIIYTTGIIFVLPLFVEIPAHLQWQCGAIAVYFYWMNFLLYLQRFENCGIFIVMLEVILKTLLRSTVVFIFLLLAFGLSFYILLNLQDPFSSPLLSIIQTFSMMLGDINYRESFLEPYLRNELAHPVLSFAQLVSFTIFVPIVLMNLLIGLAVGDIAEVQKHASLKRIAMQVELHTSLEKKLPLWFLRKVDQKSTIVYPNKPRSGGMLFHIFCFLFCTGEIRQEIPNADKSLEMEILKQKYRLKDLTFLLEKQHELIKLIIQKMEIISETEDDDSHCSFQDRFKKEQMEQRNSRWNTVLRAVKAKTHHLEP

Turning to `CCC=CCC=CCC=CCCCCCCCC(=O)NC(C)C(=O)O` (centres unmarked) [K], the “selectivity of activation, TRPA1 versus TRPV1” value (comparison of TRPA1 and TRPV1 activation in HEK 293 cells) is “purely activating TRPA1”. In addition, the “maximum activation on TRPA1” value (responses expressed as percentage of maximum response evoked by 150 μM cinnamaldehyde, FIG. 1) was “strong stimulating effect”.
